In patent publication EP0216105A1, “Diazaphosphorines, process for their preparation and their use as pesticide” (priority 1985, dated 1987):

Tests used:
Haemonchus contortus = test: In vivo nematode test, infected sheep (egg count in faeces); set-up: species or system Schafe; conditions: sheep infected with normally sensitive or benzimidazole-resistant Haemonchus contortus, oral, pure active substance in gelatin capsules, worm egg count before and after treatment; for minimal effective dose: read-out: Dosis effectiva
Excerpt: Haemonchus contortus 1 Schaf
Experimentell mit normal empfindlichen bzw. mit gegen Benzimidazol-Anthelmintika resistenten Haemonchus contortus infizierte Schafe wurden nach Ablauf der Präpatenzzeit des Parasiten behandelt. Die Wirkstoffe wurden als reiner Wirkstoff in Gelatinkapseln oral appliziert.
Der Wirkungsgrad wird dadurch bestimmt, daß man die mit dem Kot ausgeschiedenen Wurmeier vor und nach der Behandlung quantitativ auszählt.
Ein völliges Sistieren der Eiausscheidung nach der Behandlung bedeutet, daß die Würmer abgetrieben wurden oder so geschädigt sind, daß sie keine Eier mehr produzieren.

[1] = test system: Mückenlarven (L4) (Aedes aegypti); test: Aedes test (larvae in aqueous preparation); format: in vivo; conditions: 20 Aedes aegypti larvae (L4) per glass; compared with the prior art; figures not given
Excerpt: • Löcungcmittal: 3 Gewichtsteile Aceton • Emulgator: 1 Gewichtsteil Alkylarylpolyglykolether
Zur Herstellung einer zweckmäßigen Wirkstoffzubereitung vermischt man 1 Gawichtcteil Wirkstoff mit der angegebenen Menge Löcungcmittel und der angegebenen Menge Emulgator und verdünnt das Konzentrat mit Wasser auf die gewünschte Konzentrationen.
Man füllt die wässrigen Wirkctoffzubereitungen in Gläser und setzt anschließend 20 Mückenlarven (L4) (Aedes aegypti) in jedes Glas ein.
Nach der gewünschten Zeit wird die Abtötung in % bestimmt. Dabei bedeutet 100 X, daß alle Tiere abgetötet wurden; 0 % bedeutet, daß keine Tiere abgetötet wurden.

[2] = test system: Musca domestica-tmultiresistent) Maden; test: Fly maggot development inhibition test; format: in vivo; conditions: Musca domestica maggots on treated filter paper, 14 days; compared with the prior art; figures not given
Protocol: Fliegenmaden-Entwicklungshommungstest Testtiere: Musca domestica-tmultiresistent) Maden Lösungsmittel: Aceton
2 Gewichtsteile Wirkstoff werden in 1 000 Volumenteilen Lösungsmittel aufgenommen. Die so erhaltene Lösung wird mit weiteren Lösungsmitteln auf die gewünschten Konzentrationen verdünnt.
2,5 ml Wirkstofflösung werden in eine Petrischale pipettiert. Auf dem Boden der Petrischale befindet sich ein Filterpapier mit einem Durchmesser von etwa 9,5 cm. Die Petrischale bleibt so lange offen stehen, bis das Lösungsmittel vollständig verdunstet ist. Je nach Konzentration der Wirkstofflösung ist die Menge Wirkstoff pro m^2 Filterpapier verschieden hoch. Anschließend gibt man etwa 25 Testtiere in die Petrischale und bedeckt sie mit einem Glasdeckel.
14 Tage nach Ansetzen der Versuche wird die Zahl der geschlüpften Fliegen kontrolliert. Bestimmt wird der X-Satz der Schlüpfhemmung im Vergleich zur unbehandelten Kontrolle.

Caenorhabditis elegans = test: In vitro nematode test; conditions: concentration at which reproduction is prevented, 7 days at 22°C; for minimal effective concentration: Caenorhabditis elegans, 168 h, read-out: Dosis effectiva
Protocol: 10-^4 g Wirkstoff wurden in 1 ml Wasser oder 0,1 ml Dimethylsulfoxid (DMSO) gelöst. Diese Lösung wurde auf eine Replica-Platte gegeben. Dazu wurden 2 ml einer E-coli-Suspension gegeben, in der man 10-20 weibliche Tiere oder Larven von Caenorhabditis elegans in 0,5 ml M9 Pufferlösung gegeben hat. Die E-coli-Suspension wurde hergestellt indem man 300 ml einer Ubernachthalter eines Uracil-bedürftigen E-coli-Stammes mit 1,8 1 steriler M 9 Pufferlösung versetzte.
Der Versuchsansatz wurde 7 Tage bei 22°C inkubiert und danach ausgewertet. Es wurde bewertet inwieweit der Wirkstoff die Vermehrung beeinträchtigt und die Konzentration angegeben bei der die Vermehrung verhindert wird.

[3] = test system: Raupe (L5) der Art Spodoptera frugiperda; test: Spodoptera test (treated artificial diet discs); format: in vivo; conditions: Spodoptera frugiperda caterpillars (L5) on treated artificial diet; compared with the prior art; figures not given
Excerpt: (§1) • Lösungsmittel: 3 Gewichtsteile Aceton • Emulgator: 1 Gewichtsteil Alkylarylpolyglykolether
Zur Herstellung einer zweckmäßigen Wirkstoffzubereitung vermischt man 1 Gewichtsteil Wirkstoff mit der angegebenen Menge Lösungsmittel und der angegebenen Menge Emulgator und verdünnt das Konzentrat mit Wasser auf die gewünschte Konzentrationen.
Kunstfutterscheiben, die in Plastikdosen liegen, werden durch Beträufeln mit der Wirkstoffzubereitung der gewünschten Konzentration behandelt. Nach Eindringen der Lösung besetzt man die Plastikdosen mit je 1 Raupe (L5) der Art Spodoptera frugiperda, wobei je Versuchsglied 5 Wiederholungen aufgestellt werden. Nach der Verpuppung legt man die Tiere eines Versuchsglieds in eine größere Dose. Nach der gewünschten Zeit wird die Abtötung in % bestimmt. Dabei bedeutet 100 X, daß alle Tiere abgetötet wurden; 0 X bedeutet, daß keine Tiere abgetötet wurden.

Strongyloides ratti = test: In vivo nematode test, infected rats; set-up: species or system Ratten; conditions: dose at which 95% of the parasites were killed, oral by gavage on three consecutive days from day 7 after infection; for ED95: Strongyloides ratti, killed day 13, read-out: effektive Dosis
Excerpt: Experimentell mit Strongyloides ratti infizierte Ratten werden 7 Tage nach der Infektion an drei aufeinanderfolgenden Tagen oral mittels Schlundsonde behandelt. Die Tiere werden 13 Tage nach der Infektion getötet und die Zahl der Parasiten bestimmt. Es wird die […] angegeben, bei der 95% der Parasiten abgetötet wurden (effektive Dosis): […]

[4] = test system: Larven (L3) des Meerrettichkäfers (Phaedon cochleariae); test: Phaedon larvae test (treated cabbage leaves); format: in vivo; conditions: Phaedon cochleariae larvae (L3) on treated Brassica oleracea leaves; compared with the prior art; figures not given
Excerpt: as §1
Zur Herstellung einer zweckmäßigen Wirkstoffzubereitung vermischt man 1 Gewichtsteil Wirkstoff mit der angegebenen Menge Lösungsmittel und der angegebenen Menge Emulgator und verdünnt das.Konzentrat mit Wasser auf die gewünschte Konzentration.
Kohlpflanzen (Brassica oleracea) werden mit der Wirkstoffzubereitung der gewünschten Konzentration behandelt. Ein Blatt der behandelten Pflanze wird in eine Plastikdose gelegt und mit Larven (L3) des Meerrettichkäfers (Phaedon cochleariae) besetzt. Nach 2 und 4 Tagen wird jeweils ein weiters Blatt von derselben Pflanze für die Nachfütterung verwendet.
Nach der gewünschten Zeit wird die Abtötung in % bestimmt. Dabei bedeutet 100 X, daß alle Käferlarven abgetötet wurden.

[5] = test system: Lucilia cuprina res.-Larven; test: Test with resistant Lucilia cuprina larvae; format: in vivo; conditions: horse meat, after 24 hours, compared with the prior art, figures not given
Excerpt: Test mit Lucilia cuprina resistent-Larven
• Emulgator: 35 Gewichtsteile Ethylenglykolmonomethylether • 35 Gewichtsteile Nonylphenolpolyglykolether
Zur Herstellung einer zweckmäßigen Wirkstoffzubereitung vermischt man drei Gewichtsteile Wirkstoff mit sieben Gewichtsteilen des oben angegebenen Gemisches und verdünnt das so erhaltene Konzentrat mit Wasser auf die jeweils gewünschte Konzentration.
Etwa 20 Lucilia cuprina res.-Larven werden in ein Teströhrchen gebracht, welches ca. 1 cm^3 Pferdefleisch und O,5 ml der Wirkstoffzubereitung enthält. Nach 24 Stunden wird der Abtötungsgrad bestimmt.

Heterakis spumosa = test: In vivo nematode test, infected mice; set-up: species or system Mäuse; conditions: Ganguleterakis spumosa, dose at which 95% of the parasites were killed, oral by gavage on four consecutive days from day 32 after infection, killed day 39, read-out: effektive Dosis
Excerpt: Experimentell mit Heterakis spumosa infizierte Mäuse werden 32 Tage nach der Infektion an vier aufeinanderfolgenden Tage oral mittels Schlundsonde behandelt. Die Tiere werden 39 Tage nach der Infektion getötet und die Zahl der Parasiten bestimmt. Es wird die Wirkstoffkonzentration angegeben bei der 95% der Parasiten abgetötet wurden (effektive Dosis): […]

Row | Structure (SMILES) | Abtötung in % [1] | X-Satz der Schlüpfhemmung im Vergleich zur unbehandelten Kontrolle [2] | minimal effective concentration (Caenorhabditis elegans) [µg/mL] | Abtötung in % [3] | Abtötung in % [4] | Abtötungsgrad [5] | also measured
1 | CN1C(=O)C(C(=O)Nc2ccc(Oc3ccc(C(F)(F)F)cc3)cc2)C(=O)N(C)P1(=O)Oc1ccc(Cl)cc1 (stereo not drawn) [Beispiel 3] | – | – | – | – | – | – | minimal effective dose (Haemonchus contortus): 50 mg/kg
2 | CN1C(=O)C(C(=O)Nc2ccc(Cl)c(C(F)(F)F)c2)C(=O)N(C)P1(=S)Oc1ccc(Cl)cc1 (stereo not drawn) [Beispiel 6] | überlegene Wirksamkeit gegenüber dem Stand der Technik | überlegene Wirksamkeit gegenüber dem Stand der Technik | 10 | – | – | – | –
3 | CN1C(=O)C(C(=O)Nc2ccc(OC(F)(F)F)cc2)C(=O)N(C)P1(=S)Oc1ccccc1 (stereo not drawn) [Beispiel 7] | überlegene Wirksamkeit gegenüber dem Stand der Technik | überlegene Wirksamkeit gegenüber dem Stand der Technik | 10 | überlegene Wirksamkeit gegenüber dem Stand der Technik | – | – | ED95 (Strongyloides ratti): 50 mg/kg; minimal effective dose (Haemonchus contortus): 50 mg/kg
4 | CN1C(=O)C(C(=O)Nc2ccc(SC(F)(F)F)cc2)C(=O)N(C)P1(=O)Oc1ccc(Cl)cc1 (stereo not drawn) [Beispiel 8] | überlegene Wirksamkeit gegenüber dem Stand der Technik | – | – | – | überlegene Wirksamkeit gegenüber dem Stand der Technik | überlegene Wirkung gegenüber dem Stand der Technik | Dosis effectiva (Caenorhabditis elegans): 10 mg/L
5 | CN1C(=O)C(C(=O)Nc2ccc(SC(F)(F)F)cc2)C(=O)N(C)P1(=O)Oc1ccccc1 (stereo not drawn) [Beispiel 10] | überlegene Wirksamkeit gegenüber dem Stand der Technik | – | 10 | überlegene Wirksamkeit gegenüber dem Stand der Technik | überlegene Wirksamkeit gegenüber dem Stand der Technik | – | –
6 | CN1C(=O)C(C(=O)Nc2ccc(Cl)c(C(F)(F)F)c2)C(=O)N(C)P1(=O)Oc1ccccc1 (stereo not drawn) [Beispiel 12] | überlegene Wirksamkeit gegenüber dem Stand der Technik | – | 10 | – | überlegene Wirksamkeit gegenüber dem Stand der Technik | – | ED95 (Strongyloides ratti): 100 mg/kg; ED95 (Heterakis spumosa): 25 mg/kg
7 | CN1C(=O)C(C(=O)Nc2ccc(OC(F)(F)C(F)F)cc2)C(=O)N(C)P1(=O)Oc1ccccc1 (stereo not drawn) [Beispiel 15] | – | – | 10 | – | überlegene Wirksamkeit gegenüber dem Stand der Technik | – | –
8 | CN1C(=O)C(C(=O)Nc2ccc(OC(F)(F)F)cc2)C(=O)N(C)P1(=O)Oc1ccccc1 (stereo not drawn) [Beispiel 16] | überlegene Wirksamkeit gegenüber dem Stand der Technik | – | 10 | überlegene Wirksamkeit gegenüber dem Stand der Technik | überlegene Wirksamkeit gegenüber dem Stand der Technik | – | –
9 | CN1C(=O)C(C(=O)Nc2ccc(OC(F)(F)F)cc2)C(=O)N(C)P1(=O)Oc1ccc(Cl)cc1 (stereo not drawn) [Beispiel 17] | – | – | 10 | überlegene Wirksamkeit gegenüber dem Stand der Technik | – | – | –
10 | CN1C(=O)C(C(=O)Nc2ccc(SC(F)(F)F)cc2)C(=O)N(C)P1(=O)Oc1ccc(Cl)cc1 (stereo not drawn) [Beispiel 24] | – | überlegene Wirksamkeit gegenüber dem Stand der Technik | 10 | überlegene Wirksamkeit gegenüber dem Stand der Technik | – | überlegene Wirkung gegenüber dem Stand der Technik | ED95 (Strongyloides ratti): 10 mg/kg; minimal effective dose (Haemonchus contortus): 10 mg/kg
11 | CN1C(=O)C(C(=O)Nc2ccc(Cl)c(C(F)(F)F)c2)C(=O)N(C)P1(=O)Oc1ccc(Cl)cc1 (stereo not drawn) [Beispiel 25] | – | überlegene Wirksamkeit gegenüber dem Stand der Technik | – | – | überlegene Wirksamkeit gegenüber dem Stand der Technik | überlegene Wirkung gegenüber dem Stand der Technik | effektive Dosis (Strongyloides ratti; killed day 13): 25 mg/kg; Dosis effectiva (Haemonchus contortus): 25 mg/kg
12 | CN1C(=O)C(C(=O)Nc2ccc(S(=O)(=O)C(F)(F)F)cc2)C(=O)N(C)P1(=O)Oc1ccc(Cl)cc1 (stereo not drawn) [Beispiel 26] | überlegene Wirksamkeit gegenüber dem Stand der Technik | überlegene Wirksamkeit gegenüber dem Stand der Technik | – | – | – | überlegene Wirkung gegenüber dem Stand der Technik | Dosis effectiva (Caenorhabditis elegans): 100 mg/L
13 | CN1C(=O)C(C(=O)Nc2ccc(OC(F)(F)F)cc2)C(=O)N(C)P1(=S)Oc1ccc(Cl)cc1 (stereo not drawn) [Beispiel 30] | – | überlegene Wirksamkeit gegenüber dem Stand der Technik | 10 | überlegene Wirksamkeit gegenüber dem Stand der Technik | – | – | –
14 | CN1C(=O)C(C(=O)Nc2ccc(SC(F)(F)F)cc2)C(=O)N(C)P1(=S)Oc1ccccc1 (stereo not drawn) [Beispiel 33] | – | – | 10 | – | – | überlegene Wirkung gegenüber dem Stand der Technik | –
15 | CN1C(=O)C(C(=O)Nc2ccc(SC(F)(F)F)cc2)C(=O)N(C)P1(=S)Oc1ccc(Cl)cc1 (stereo not drawn) [Beispiel 34] | – | – | 100 | überlegene Wirksamkeit gegenüber dem Stand der Technik | – | überlegene Wirkung gegenüber dem Stand der Technik | –
16 | CC(C)N1C(=O)C(C(=O)Nc2ccc(C(F)(F)F)c(Cl)c2)C(=O)N(C)P1(=O)Oc1cccc(Cl)c1 (stereo not drawn) [Beispiel 41] | – | – | 10 | – | – | überlegene Wirkung gegenüber dem Stand der Technik | –
17 | CCN1C(=O)C(C(=O)Nc2ccc(Oc3cccc(C(F)(F)F)c3)cc2)C(=O)N(C)P1(=O)Oc1cccc(Cl)c1 (stereo not drawn) [Beispiel 47] | – | – | – | – | – | – | minimal effective dose (Haemonchus contortus): 10 mg/kg
